Reference: PMC11288027, “Exploring novel microbial metabolites and drugs for inhibiting Clostridioides difficile” (mSphere, 2024)
Values after ≈ are worked out from the molar mass of the structure shown. Counter-ions that a name gives are not always drawn. Like-named read-outs stand apart in the source and are kept apart here.

Tests used:
[1] = test system: C. difficile clinical isolates; test: MIC against a panel of 20 C. difficile clinical isolates (broth microdilution); format: cell-based, Clostridioides difficile; conditions: for MIC50: concentration that inhibited 50% of the 20 C. difficile clinical isolates; for MIC90: concentration that inhibited 90% of the 20 C. difficile clinical isolates; for MIC: read-out: minimum inhibitory concentration (MIC)
[2] = test system: B. fragilis; test: MIC against human gut microbiota; format: cell-based, Bacteroides fragilis; conditions: anaerobic; for MIC: Bacteroides fragilis, read-out: minimum inhibitory concentration (MIC)
[3] = test system: B. dorei; test: MIC against human gut microbiota; format: cell-based, Bacteroides dorei; conditions: B. dorei HM- 719, BHIS broth, anaerobic; for MIC: Phocaeicola dorei, read-out: minimum inhibitory concentration (MIC)
[4] = test system: Bif. breve; test: MIC against human gut microbiota; format: cell-based, Bifidobacterium breve; conditions: Bif. breve ATCC 15700, BHIS broth, anaerobic; for MIC: Bifidobacterium breve, ATCC15700, read-out: minimum inhibitory concentration (MIC)
[5] = test system: Bif. angulatum; test: MIC against human gut microbiota; format: cell-based, Bifidobacterium angulatum; conditions: Bif. angulatum HM- 1189, BHIS broth, anaerobic; for MIC: Bifidobacterium angulatum, read-out: minimum inhibitory concentration (MIC)
[6] = test system: Bif. adolescentis; test: MIC against human gut microbiota; format: cell-based, Bifidobacterium adolescentis; conditions: Bif. adolescentis HM- 633, BHIS broth, anaerobic; for MIC: Bifidobacterium adolescentis, read-out: minimum inhibitory concentration (MIC)
[7] = test system: Bif. longum; test: MIC against human gut microbiota; format: cell-based, Bifidobacterium longum; conditions: anaerobic; for MIC: Bifidobacterium longum, read-out: minimum inhibitory concentration (MIC)
[8] = test system: E. faecium; test: MIC against human gut microbiota; format: cell-based, Enterococcus faecium; conditions: E. faecium HM-202, TSB, aerobic; for MIC: Enterococcus faecium, read-out: minimum inhibitory concentration (MIC)
[9] = test system: E. fecalis; test: MIC against human gut microbiota; format: cell-based, Enterococcus faecalis; conditions: E. fecalis HM-970, TSB, aerobic; for MIC: Enterococcus faecalis, read-out: minimum inhibitory concentration (MIC)
[10] = test system: L. casei; test: MIC against human gut microbiota; format: cell-based; conditions: L. casei ATCC 334, MRS broth, 5% CO2; for MIC: Lacticaseibacillus casei, ATCC334, read-out: minimum inhibitory concentration (MIC)
[11] = test system: L. brevis; test: MIC against human gut microbiota; format: cell-based, Lactobacillus brevis; conditions: L. brevis ATCC-14864, MRS broth, 5% CO2; for MIC: Levilactobacillus brevis, ATCC14864, read-out: minimum inhibitory concentration (MIC)
[12] = test system: L. rhamanosus; test: MIC against human gut microbiota; format: cell-based, Lactobacillus rhamnoosus; conditions: L. rhamanosus ATCC-53103, MRS broth, 5% CO2; for MIC: Lactobacillus, ATCC53103, read-out: minimum inhibitory concentration (MIC)
[13] = test system: mycobacteria; design: method as in PMID 33916775; conditions: cited from earlier work
[14] = test system: C. difficile ATCC BAA-1870; test: MIC of active hits by broth microdilution; conditions: C. difficile ATCC BAA-1870, 48 h anaerobic; for MIC: Clostridioides difficile, ATCCBAA1870, 48 h
[15] = test system: Bifidobacterium species; test: MIC against human gut microbiota, summary in text; format: cell-based; conditions: summary over the Bifidobacterium strains of Table 4
[16] = test system: enterococcal species; test: MIC against human gut microbiota, summary in text; format: cell-based; conditions: summary over the Enterococcus strains of Table 4
[17] = test system: vancomycin-resistant enterococci (VRE); design: method as in PMID 26765953; conditions: cited from earlier work
[18] = test system: MRSA; design: method as in PMID 26765953; conditions: cited from earlier work
[19] = test system: A. baumannii; design: method as in PMID 31105656; conditions: cited from earlier work
[20] = test system: Acinetobacter calcoaceticus; design: method as in PMID 31105656; conditions: cited from earlier work
[21] = B. fragilis HM- 709, BHIS broth
[22] = B. fragilis HM- 718, BHIS broth
[23] = Bif. longum HM- 845, BHIS broth
[24] = Bif. longum HM- 846, BHIS broth
[25] = Bif. longum HM- 847, BHIS broth
[26] = Bif. longum HM- 848, BHIS broth
[27] = Clostridioides difficile, 48 h, read-out: MIC50
[28] = Clostridioides difficile, ATCC630, C. difficile ATCC 630
[29] = Clostridioides difficile, ATCC43255, C. difficile ATCC 43255
[30] = Clostridioides difficile, ATCCBAA1870, C. difficile ATCC BAA-1870 (Ribotype-027), purchased compounds, panel test
[31] = Clostridioides difficile, C. difficile CD-1 (Ribotype-027)
[32] = Clostridioides difficile, C. difficile CD-6 (Ribotype-027)
[33] = Clostridioides difficile, C. difficile CD-10(Ribotype-027)
[34] = Clostridioides difficile, C. difficile CD-12
[35] = Clostridioides difficile, C. difficile CD-13
[36] = Clostridioides difficile, C. difficile CD-15
[37] = Clostridioides difficile, C. difficile CD-22
[38] = Clostridioides difficile, C. difficile CD-23
[39] = Clostridioides difficile, C. difficile CD-24
[40] = Clostridioides difficile, C. difficile CD-26 (Ribotype-027)
[41] = Clostridioides difficile, C. difficile CD-28
[42] = Clostridioides difficile, C. difficile CD-29 (Ribotype-027)
[43] = Clostridioides difficile, C. difficile CD-30
[44] = Clostridioides difficile, C. difficile NR-49302
[45] = Clostridioides difficile, C. difficile NR-49304
[46] = Clostridioides difficile, C. difficile NR-49308
[47] = Clostridioides difficile, C. difficile NR-49319
[48] = Clostridioides difficile, read-out: MIC50
[49] = Clostridioides difficile, read-out: MIC90

Milbemycin oxime
minimum inhibitory concentration (MIC) ([1]; C. difficile ATCC 630): 4 µg/mL
minimum inhibitory concentration (MIC) ([1]; C. difficile ATCC 43255): 4 µg/mL
minimum inhibitory concentration (MIC) ([1]; C. difficile ATCC BAA-1870 (Ribotype-027), purchased compounds, panel test): 8 µg/mL
minimum inhibitory concentration (MIC) ([1]; C. difficile CD-1 (Ribotype-027)): 4 µg/mL
minimum inhibitory concentration (MIC) ([1]; C. difficile CD-6 (Ribotype-027)): 4 µg/mL
minimum inhibitory concentration (MIC) ([1]; C. difficile CD-10(Ribotype-027)): 4 µg/mL
minimum inhibitory concentration (MIC) ([1]; C. difficile CD-12): 4 µg/mL
minimum inhibitory concentration (MIC) ([1]; C. difficile CD-13): 8 µg/mL
minimum inhibitory concentration (MIC) ([1]; C. difficile CD-15): 4 µg/mL
minimum inhibitory concentration (MIC) ([1]; C. difficile CD-22): 8 µg/mL
minimum inhibitory concentration (MIC) ([1]; C. difficile CD-23): 4 µg/mL
minimum inhibitory concentration (MIC) ([1]; C. difficile CD-24): 4 µg/mL
minimum inhibitory concentration (MIC) ([1]; C. difficile CD-26 (Ribotype-027)): 4 µg/mL
minimum inhibitory concentration (MIC) ([1]; C. difficile CD-28): 8 µg/mL
minimum inhibitory concentration (MIC) ([1]; C. difficile CD-29 (Ribotype-027)): 4 µg/mL
minimum inhibitory concentration (MIC) ([1]; C. difficile CD-30): 4 µg/mL
minimum inhibitory concentration (MIC) ([1]; C. difficile NR-49302): 4 µg/mL
minimum inhibitory concentration (MIC) ([1]; C. difficile NR-49304): 8 µg/mL
minimum inhibitory concentration (MIC) ([1]; C. difficile NR-49308): 4 µg/mL
minimum inhibitory concentration (MIC) ([1]; C. difficile NR-49319): 8 µg/mL
MIC50 [1]: 4 µg/mL
MIC90 [1]: 8 µg/mL
minimum inhibitory concentration (MIC) [2, 21]: 32 µg/mL
minimum inhibitory concentration (MIC) [2, 22]: >256 µg/mL
minimum inhibitory concentration (MIC) [3]: >256 µg/mL
minimum inhibitory concentration (MIC) [4]: 4 µg/mL
minimum inhibitory concentration (MIC) [5]: 4 µg/mL
minimum inhibitory concentration (MIC) [6]: 4 µg/mL
minimum inhibitory concentration (MIC) [7, 23]: 8 µg/mL
minimum inhibitory concentration (MIC) [7, 24]: 8 µg/mL
minimum inhibitory concentration (MIC) [7, 25]: 8 µg/mL
minimum inhibitory concentration (MIC) [7, 26]: 8 µg/mL
minimum inhibitory concentration (MIC) [8]: 4 µg/mL
minimum inhibitory concentration (MIC) [9]: 8 µg/mL
minimum inhibitory concentration (MIC) [10]: >256 µg/mL
minimum inhibitory concentration (MIC) [11]: >256 µg/mL
minimum inhibitory concentration (MIC) [12]: >256 µg/mL
MIC (antimycobacterial activity) [13]: < 8 µg/mL
MIC (μM) [14]: 4 µM
MIC (μg/mL) [14]: 4.39 µg/mL

CCCCc1oc2ccc(NS(C)(=O)=O)cc2c1C(=O)c1ccc(OCCCN(CCCC)CCCC)cc1 [Dronedarone]
MIC50 [1, 27]: 4 µg/mL (≈ 7.18 µM)
MIC [1, 28]: 4 µg/mL (≈ 7.18 µM)
MIC [1, 29]: 4 µg/mL (≈ 7.18 µM)
MIC [1, 30]: 4 µg/mL (≈ 7.18 µM)
MIC [1, 31]: 4 µg/mL (≈ 7.18 µM)
MIC [1, 32]: 4 µg/mL (≈ 7.18 µM)
MIC [1, 33]: 4 µg/mL (≈ 7.18 µM)
MIC [1, 34]: 4 µg/mL (≈ 7.18 µM)
MIC [1, 35]: 4 µg/mL (≈ 7.18 µM)
MIC [1, 36]: 4 µg/mL (≈ 7.18 µM)
MIC [1, 37]: 2 µg/mL (≈ 3.59 µM)
MIC [1, 38]: 8 µg/mL (≈ 14.4 µM)
MIC [1, 39]: 2 µg/mL (≈ 3.59 µM)
MIC [1, 40]: 4 µg/mL (≈ 7.18 µM)
MIC [1, 41]: 8 µg/mL (≈ 14.4 µM)
MIC [1, 42]: 2 µg/mL (≈ 3.59 µM)
MIC [1, 43]: 8 µg/mL (≈ 14.4 µM)
MIC [1, 44]: 4 µg/mL (≈ 7.18 µM)
MIC [1, 45]: 2 µg/mL (≈ 3.59 µM)
MIC [1, 46]: 4 µg/mL (≈ 7.18 µM)
MIC [1, 47]: 8 µg/mL (≈ 14.4 µM)
MIC50 [1, 48]: 4 µg/mL (≈ 7.18 µM)
MIC90 [1, 49]: 8 µg/mL (≈ 14.4 µM)
MIC [2, 21]: 8 µg/mL (≈ 14.4 µM)
MIC [2, 22]: 8 µg/mL (≈ 14.4 µM)
MIC [3]: 8 µg/mL (≈ 14.4 µM)
MIC [4]: 8 µg/mL (≈ 14.4 µM)
MIC [5]: 8 µg/mL (≈ 14.4 µM)
MIC [6]: 8 µg/mL (≈ 14.4 µM)
MIC [7, 23]: 8 µg/mL (≈ 14.4 µM)
MIC [7, 24]: 8 µg/mL (≈ 14.4 µM)
MIC [7, 25]: 8 µg/mL (≈ 14.4 µM)
MIC [7, 26]: 8 µg/mL (≈ 14.4 µM)
MIC [8]: 8 µg/mL (≈ 14.4 µM)
MIC [9]: 4 µg/mL (≈ 7.18 µM)
MIC [10]: 64 µg/mL (≈ 115 µM)
MIC [11]: 32 µg/mL (≈ 57.5 µM)
MIC [12]: 128 µg/mL (≈ 230 µM)
MIC [15]: 2 to 8 µg/mL (≈ 3.59 to 14.4 µM)
MIC (μM) [14]: 8 µM
MIC [14]: 4.45 µg/mL

N=C(N/N=C/c1ccc(Cl)cc1)N/N=C/c1ccc(Cl)cc1 [Robenidine hydrochloride]
MIC50 [1, 27]: 1 µg/mL
MIC [1, 28]: 1 µg/mL
MIC [1, 29]: 1 µg/mL
MIC [1, 30]: 2 µg/mL
MIC [1, 31]: 1 µg/mL
MIC [1, 32]: 1 µg/mL
MIC [1, 33]: 1 µg/mL
MIC [1, 34]: 1 µg/mL
MIC [1, 35]: 2 µg/mL
MIC [1, 36]: 2 µg/mL
MIC [1, 37]: 2 µg/mL
MIC [1, 38]: 1 µg/mL
MIC [1, 39]: 1 µg/mL
MIC [1, 40]: 1 µg/mL
MIC [1, 41]: 1 µg/mL
MIC [1, 42]: 1 µg/mL
MIC [1, 43]: 2 µg/mL
MIC [1, 44]: 1 µg/mL
MIC [1, 45]: 1 µg/mL
MIC [1, 46]: 1 µg/mL
MIC [1, 47]: 1 µg/mL
MIC50 [1, 48]: 1 µg/mL
MIC90 [1, 49]: 2 µg/mL
MIC [2, 21]: ≤ 2 µg/mL
MIC [2, 22]: ≤ 2 µg/mL
MIC [3]: ≤ 2 µg/mL
MIC [4]: ≤ 2 µg/mL
MIC [5]: ≤ 2 µg/mL
MIC [6]: ≤ 2 µg/mL
MIC [7, 23]: ≤ 2 µg/mL
MIC [7, 24]: ≤ 2 µg/mL
MIC [7, 25]: ≤ 2 µg/mL
MIC [7, 26]: ≤ 2 µg/mL
MIC [8]: ≤ 2 µg/mL
MIC [9]: ≤ 2 µg/mL
MIC [10]: 16 µg/mL
MIC [11]: 8 µg/mL
MIC [12]: 16 µg/mL
MIC [16]: ≤ 2 µg/mL
MIC [17]: 4.7 µM
MIC [18]: 8.1 µM
MIC [19]: 8 µg/mL
MIC [20]: 2 µg/mL
MIC (μM) [14]: 8 µM
MIC [14]: 2.97 µg/mL
